Results on 16 molecules are retold here after ChEMBL document CHEMBL5729359, “Tri-substituted heteroaryl derivatives as Src homology-2 phosphatase inhibitors” (2022).

The target in this test is T1, Tyrosine-protein phosphatase non-receptor type 11 (Homo sapiens, UniProt Q06124).
T1 sequence (Q06124 whole entry): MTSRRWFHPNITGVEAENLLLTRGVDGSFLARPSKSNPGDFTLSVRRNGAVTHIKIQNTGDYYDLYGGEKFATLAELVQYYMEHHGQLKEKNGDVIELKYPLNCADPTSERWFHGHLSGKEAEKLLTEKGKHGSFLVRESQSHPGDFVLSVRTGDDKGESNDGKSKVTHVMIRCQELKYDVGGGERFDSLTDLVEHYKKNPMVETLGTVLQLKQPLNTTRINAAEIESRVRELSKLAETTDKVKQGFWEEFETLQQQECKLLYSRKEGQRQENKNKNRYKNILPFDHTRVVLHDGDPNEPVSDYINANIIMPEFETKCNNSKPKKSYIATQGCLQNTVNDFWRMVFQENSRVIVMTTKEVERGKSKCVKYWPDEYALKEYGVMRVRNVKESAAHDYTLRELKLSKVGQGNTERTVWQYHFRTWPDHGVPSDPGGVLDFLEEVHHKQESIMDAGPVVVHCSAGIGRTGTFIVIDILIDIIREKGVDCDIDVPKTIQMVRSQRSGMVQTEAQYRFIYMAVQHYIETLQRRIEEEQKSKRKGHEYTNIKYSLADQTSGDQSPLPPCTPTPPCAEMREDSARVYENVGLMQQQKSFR
In words: At the basal state, SHP2 is auto-inhibited and access of substrates to the catalytic site is blocked by the […] interactions between the SH2 domains and the PTP domain. When bis-tyrosyl-phosphorylated peptides bind to SH2 domain of SHP2, the PTP domain becomes available for substrate recognition and reaction catalysis and SHP2 is allosterically activated. SHP2 catalytic activity can be measured using a fluorogenic artificial substrate DiFMUP.The phosphatase reactions were carried out at room temperature in 384-well black polystyrene plates (Greiner Bio-One, Cat #784076) using assay buffers containing 60 mM HEPES, pH 7.2, 75 mM NaCl, 75 mM KCl, 1 mM EDTA, 0.05% P-20, and 5 mM DTT.0.33 nM of […] was co-incubated with of 0.5 μM of bisphos-IRS 1 peptide (sequence: H2N-LN(pY)IDLDLV(dPEG8)LST(pY)ASINFQK-amide) and various concentrations of compounds for 30-60 min at room temperature. Then the reaction was initiated by addition of the surrogate substrate DiFMUP (Invitrogen, Cat #D6567, 100 uM final).The real-time conversion of DiFMUP to DiFMU (6,8-difluoro-7-hydroxyl-4-methyl-coumarin) was measured every 5 min for 30 min using a microplate reader (CLARIOstar, BMG Labtech) with excitation and emission wavelengths of 340 nm and 450 nm, respectively. Initial reaction rates were determined by linear fitting of the data and the inhibitor dose response curves were analyzed using normalized IC50 regression curve fitting with control based normalization.

On to `C[C@@H]1OCC2(CCN(c3ncc(Sc4cc5[nH]c6c(c5nc4Cl)CCCC6O)nc3CO)CC2)[C@@H]1N` (stereo partly specified), for which the IC50 (commonly the midpoint of a concentration-inhibition curve) came out at 4.8 nM.

Take `C[C@@H]1OCC2(CCN(c3ncc(Sc4ccnc(N)c4Cl)nc3CO)CC2)[C@@H]1N`: the concentration for half-maximal inhibition (IC50) is 0.9 nM.

For the molecule `C[C@@H]1OCC2(CCN(c3ncc(Sc4cccnc4C(F)(F)F)nc3[S+](C)[O-])CC2)[C@@H]1N` (stereo partly specified), the half-maximal inhibitory concentration (IC50) came to 85 nM.

`C[C@@H]1OCC2(CCN(c3ncc(Sc4ccnc(N)c4Cl)nc3Cl)CC2)[C@@H]1N`: the IC50 is 12 nM.

With `Nc1nccc(Sc2cnc(N3CCC4(CC3)Cc3ncccc3[C@H]4N)c(CO)n2)c1Cl`, the IC50 was 0.6 nM.

For the molecule `COC1CCc2[nH]c3cc(Sc4cnc(N5CCC6(CC5)CO[C@@H](C)[C@H]6N)c(CO)n4)c(Cl)nc3c2C1` (stereo partly specified), the IC50 stood at 5.5 nM.

`C[C@@H]1OCC2(CCN(c3ncc(Sc4ccnc(N)c4Cl)nc3[S+](C)[O-])CC2)[C@@H]1N` (stereo partly specified): the 50% inhibitory concentration (IC50) is 13 nM.

As for `C[C@@H]1OCC2(CCN(c3ncc(Sc4ccnc(F)c4Cl)nc3[S+](C)[O-])CC2)[C@@H]1N` (stereo partly specified), the IC50 stood at 21 nM.

As for `C[C@@H]1OCC2(CCN(c3ncc(Sc4ccnc(N)c4Cl)nc3O)CC2)[C@@H]1N`, the IC50 amounted to 13 nM.

As for `C[C@@H]1OCC2(CCN(c3ncc(Sc4cc5[nH]c6c(c5nc4Cl)CC(O)CC6)nc3CO)CC2)[C@@H]1N` (stereo partly specified), the IC50 worked out at 3.5 nM.

For `COc1nccc(Sc2cnc(N3CCC4(CC3)CO[C@@H](C)[C@H]4N)c([S+](C)[O-])n2)c1Cl` (stereo partly specified), the IC50 worked out at 18 nM.

Regarding `C[C@@H]1OCC2(CCN(c3ncc(Sc4cc(N)nc(Cl)c4Cl)nc3[S+](C)[O-])CC2)[C@@H]1N` (stereo partly specified), the IC50 is 3 nM.

As for `C[C@@H]1OCC2(CCN(c3ncc(Sc4ccnc(N5CCCC5)c4Cl)nc3[S+](C)[O-])CC2)[C@@H]1N` (stereo partly specified), the IC50 turned out to be 13 nM.

Consider `CN1C(=O)CCC12CC(N)C1(CCN(c3ncc(Sc4ccnc(N)c4Cl)nc3CO)CC1)C2` (stereo unspecified), for which the IC50 worked out at 269 nM.

For the molecule `C[C@@H]1OCC2(CCN(c3ncc(Sc4ccnc(Cl)c4Cl)nc3[S+](C)[O-])CC2)[C@@H]1N` (stereo partly specified), the IC50 came out at 6 nM.

As to `Nc1nccc(Sc2cnc(N3CCC4(CC3)CCC3(CC3)C4N)c(CO)n2)c1Cl` (stereo unspecified), the IC50 was 3 nM.
